Results from ChEMBL document CHEMBL5518230, “Identification of a Novel Selective CDK9 Inhibitor for the Treatment of CRC: Design, Synthesis, and Biological Activity Evaluation” (J Med Chem, 2024).
pIC50: −log10 of the molar value. The source made the active and inactive calls. The rule behind the calls is not given here.

Tests used:
HCT-116 [1] = experiment: Induction of apoptosis in human HCT-116 cells assessed as downregulation of RNA polymerase II phosphorylation at Ser2 residue at 25 to 400 nM incubated for 48 hrs by Western blotting analysis; assay type: functional, cell-based; conditions: dose 25-400 nM
[2] = biological target: Activin receptor type-1B (Homo sapiens) (UniProt P36896); experiment: Inhibition of human ALK4 at 100 nM by kinase profiling assay relative to control
Chain of Activin receptor type-1B (Homo sapiens) (P36896 whole entry): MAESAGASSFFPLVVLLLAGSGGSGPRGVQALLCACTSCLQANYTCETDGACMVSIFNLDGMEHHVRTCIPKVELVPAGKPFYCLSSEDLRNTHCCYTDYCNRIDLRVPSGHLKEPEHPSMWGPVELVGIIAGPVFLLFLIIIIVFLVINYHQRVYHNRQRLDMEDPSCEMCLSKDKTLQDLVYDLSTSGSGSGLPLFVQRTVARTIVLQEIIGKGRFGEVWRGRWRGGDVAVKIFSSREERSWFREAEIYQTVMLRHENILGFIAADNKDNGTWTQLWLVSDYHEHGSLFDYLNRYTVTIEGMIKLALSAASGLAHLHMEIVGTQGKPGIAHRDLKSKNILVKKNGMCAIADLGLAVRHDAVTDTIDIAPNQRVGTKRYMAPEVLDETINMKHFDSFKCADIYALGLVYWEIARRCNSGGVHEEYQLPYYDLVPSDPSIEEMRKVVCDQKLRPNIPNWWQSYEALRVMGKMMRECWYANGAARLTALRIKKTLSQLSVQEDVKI

[3] = biological target: Serine/threonine-protein kinase PAK 4 (Homo sapiens) (UniProt O96013); experiment: Inhibition of human PAK4 at 100 nM by kinase profiling assay relative to control
Chain of Serine/threonine-protein kinase PAK 4 (Homo sapiens) (O96013 whole entry, looked up): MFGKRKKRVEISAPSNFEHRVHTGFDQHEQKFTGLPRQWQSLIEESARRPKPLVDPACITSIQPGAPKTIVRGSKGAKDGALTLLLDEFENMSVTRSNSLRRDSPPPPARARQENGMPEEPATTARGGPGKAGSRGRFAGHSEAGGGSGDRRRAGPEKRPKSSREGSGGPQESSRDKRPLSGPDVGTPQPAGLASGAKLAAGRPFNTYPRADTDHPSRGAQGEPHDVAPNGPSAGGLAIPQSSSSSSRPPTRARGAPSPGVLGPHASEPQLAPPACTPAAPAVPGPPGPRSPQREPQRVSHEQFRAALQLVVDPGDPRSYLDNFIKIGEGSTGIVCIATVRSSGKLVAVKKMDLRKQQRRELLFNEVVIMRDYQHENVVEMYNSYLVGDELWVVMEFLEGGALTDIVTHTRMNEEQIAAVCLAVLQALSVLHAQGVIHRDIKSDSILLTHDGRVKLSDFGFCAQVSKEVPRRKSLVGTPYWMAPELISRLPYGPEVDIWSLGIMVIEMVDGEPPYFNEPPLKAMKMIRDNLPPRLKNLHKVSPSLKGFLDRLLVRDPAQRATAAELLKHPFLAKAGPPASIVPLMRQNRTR

[4] = Toxicity in BALB/c mouse xenografted with human HCT-116 cells assessed as lung morphological change at 50 mg/kg,po administrated once daily for 3 weeks by hematoxylin and eosin staining based microscopic analysis; assay type: organism-based; conditions: in vivo, 504 h
HCT-116 [5] = experiment: Inhibition of colony formation in human HCT-116 cells assessed as reduction in colony number incubated for 14 days by crystal violet staining assay; assay type: functional, cell-based; conditions: time 14.0 day
[6] = Toxicity in BALB/c mouse xenografted with human HCT-116 cells assessed as heart morphological change at 25 mg/kg,po administrated once daily for 3 weeks by hematoxylin and eosin staining based microscopic analysis; assay type: organism-based; conditions: in vivo, 504 h
[7] = biological target: Homeodomain-interacting protein kinase 1 (Homo sapiens) (UniProt Q86Z02); experiment: Inhibition of human HIPK1 at 100 nM by kinase profiling assay relative to control
CYP2D6 = CYP2D6 (Homo sapiens, UniProt P10635); experiment: Inhibition of CYP2D6 in human liver microsomes using quinidine as […] at 10 uM preincubated for 10 mins followed by NADPH addition measured after 15 mins by LC-MS/MS analysis relative to control; assay type: ADME, Microsome; conditions: time 25 min
Chain of CYP2D6 (P10635 whole entry): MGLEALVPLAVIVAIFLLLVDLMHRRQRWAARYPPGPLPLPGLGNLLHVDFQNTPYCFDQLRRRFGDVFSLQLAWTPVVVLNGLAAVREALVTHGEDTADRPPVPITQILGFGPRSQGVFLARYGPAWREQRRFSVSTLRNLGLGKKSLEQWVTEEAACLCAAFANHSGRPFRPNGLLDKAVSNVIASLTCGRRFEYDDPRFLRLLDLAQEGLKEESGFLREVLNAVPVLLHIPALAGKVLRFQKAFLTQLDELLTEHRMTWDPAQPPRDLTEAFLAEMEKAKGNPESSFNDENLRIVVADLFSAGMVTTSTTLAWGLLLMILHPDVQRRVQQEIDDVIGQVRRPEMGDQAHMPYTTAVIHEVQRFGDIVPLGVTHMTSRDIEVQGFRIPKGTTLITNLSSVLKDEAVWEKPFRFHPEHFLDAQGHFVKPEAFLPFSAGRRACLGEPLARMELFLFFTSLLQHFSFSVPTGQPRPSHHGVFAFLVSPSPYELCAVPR

[8] = Half life in Sprague-Dawley rat at 10 mg/kg,po administration measured for 0.25 to 24 hrs by LC-MS/MS analysis; assay type: ADME, organism-based; conditions: in vivo, time 0.25-24 hrs
[9] = biological target: Mitogen-activated protein kinase kinase kinase kinase 4 (Homo sapiens) (UniProt O95819); experiment: Inhibition of human HGK at 100 nM by kinase profiling assay relative to control
[10] = biological target: cAMP-dependent protein kinase catalytic subunit alpha (Homo sapiens) (UniProt P17612); experiment: Inhibition of human PKACalpha at 100 nM by kinase profiling assay relative to control
SW480 = experiment: Growth inhibition of human SW480 cells incubated for 48 hrs by CCK-8 assay; assay type: functional
[11] = Toxicity in BALB/c mouse xenografted with human HCT-116 cells assessed as kidney morphological change at 25 mg/kg,po administrated once daily for 3 weeks by hematoxylin and eosin staining based microscopic analysis; assay type: organism-based; conditions: in vivo, 504 h
CYP3A4 = CYP3A4 (Homo sapiens, UniProt P08684); experiment: Inhibition of CYP3A4 in human liver microsomes using ketoconazole as […] at 10 uM preincubated for 10 mins followed by NADPH addition measured after 15 mins by LC-MS/MS analysis relative to control; assay type: ADME, Microsome; conditions: probe ketoconazole, time 25 min
Chain of CYP3A4 (P08684 whole entry): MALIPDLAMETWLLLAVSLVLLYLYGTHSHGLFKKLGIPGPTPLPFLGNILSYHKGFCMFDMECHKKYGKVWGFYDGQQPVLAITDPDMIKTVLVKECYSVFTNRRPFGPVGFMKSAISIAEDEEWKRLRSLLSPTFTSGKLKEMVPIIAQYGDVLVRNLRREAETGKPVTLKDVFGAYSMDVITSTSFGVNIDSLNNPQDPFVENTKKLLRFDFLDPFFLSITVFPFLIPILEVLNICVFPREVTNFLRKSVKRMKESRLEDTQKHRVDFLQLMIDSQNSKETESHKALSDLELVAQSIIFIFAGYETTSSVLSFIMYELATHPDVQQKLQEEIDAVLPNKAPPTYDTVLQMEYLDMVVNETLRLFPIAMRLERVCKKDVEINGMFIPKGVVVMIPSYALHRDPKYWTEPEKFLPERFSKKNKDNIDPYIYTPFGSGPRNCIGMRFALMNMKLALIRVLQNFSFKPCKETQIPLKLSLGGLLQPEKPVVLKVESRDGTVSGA

[12] = Bioavailability in Sprague-Dawley rat at 2 mg/kg,iv administration measured for 0.25 to 24 hrs by LC-MS/MS analysis; assay type: ADME, organism-based; conditions: in vivo, time 0.25-24 hrs
[13] = Toxicity in BALB/c mouse xenografted with human HCT-116 cells assessed as heart morphological change at 50 mg/kg,po administrated once daily for 3 weeks by hematoxylin and eosin staining based microscopic analysis; assay type: organism-based; conditions: in vivo, 504 h
[14] = biological target: Serine/threonine-protein kinase SIK2 (Homo sapiens) (UniProt Q9H0K1); experiment: Inhibition of human QIK at 100 nM by kinase profiling assay relative to control
Chain of Serine/threonine-protein kinase SIK2 (Homo sapiens) (Q9H0K1 whole entry, looked up): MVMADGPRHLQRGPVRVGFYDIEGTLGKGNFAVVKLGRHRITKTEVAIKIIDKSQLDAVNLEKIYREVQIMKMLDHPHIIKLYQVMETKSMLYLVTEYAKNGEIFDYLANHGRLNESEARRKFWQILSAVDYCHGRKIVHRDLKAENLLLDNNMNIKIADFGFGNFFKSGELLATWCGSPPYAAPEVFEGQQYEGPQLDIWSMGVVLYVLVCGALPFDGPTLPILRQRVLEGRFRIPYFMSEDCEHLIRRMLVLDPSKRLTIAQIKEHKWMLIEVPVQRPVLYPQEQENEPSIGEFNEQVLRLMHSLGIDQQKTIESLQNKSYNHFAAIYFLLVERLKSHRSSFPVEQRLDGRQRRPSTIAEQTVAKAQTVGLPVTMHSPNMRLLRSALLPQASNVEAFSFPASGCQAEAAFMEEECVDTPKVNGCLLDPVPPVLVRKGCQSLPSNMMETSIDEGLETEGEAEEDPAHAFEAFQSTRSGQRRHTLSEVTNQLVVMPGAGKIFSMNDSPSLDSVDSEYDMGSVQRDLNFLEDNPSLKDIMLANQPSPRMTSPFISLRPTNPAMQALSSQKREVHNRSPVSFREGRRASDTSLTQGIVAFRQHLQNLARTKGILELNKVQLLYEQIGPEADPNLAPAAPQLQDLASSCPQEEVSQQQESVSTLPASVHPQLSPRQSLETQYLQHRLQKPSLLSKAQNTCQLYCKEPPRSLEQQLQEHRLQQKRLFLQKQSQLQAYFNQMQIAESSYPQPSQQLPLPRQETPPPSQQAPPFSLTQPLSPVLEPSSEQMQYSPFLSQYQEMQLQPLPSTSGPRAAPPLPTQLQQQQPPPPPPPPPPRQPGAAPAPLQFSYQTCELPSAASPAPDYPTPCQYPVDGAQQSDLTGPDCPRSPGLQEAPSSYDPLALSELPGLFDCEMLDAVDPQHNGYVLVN

[15] = Toxicity in BALB/c mouse xenografted with human HCT-116 cells assessed as spleen morphological change at 25 mg/kg,po administrated once daily for 3 weeks by hematoxylin and eosin staining based microscopic analysis; assay type: organism-based; conditions: in vivo, 504 h
HCT-116 [16] = experiment: Induction of apoptosis in human HCT-116 cells assessed as downregulation of cleaved caspase-3 expression at 25 to 400 nM incubated for 48 hrs by Western blotting analysis; assay type: functional, cell-based; conditions: dose 25-400 nM
HCT-116 [17] = experiment: Induction of apoptosis in human HCT-116 cells assessed as downregulation of XIAP mRNA expression at 25 to 400 nM incubated for 48 hrs by qRT-PCR analysis; assay type: functional, cell-based; conditions: dose 25-400 nM
[18] = Cmax in Sprague-Dawley rat at 2 mg/kg,iv administration measured for 0.25 to 24 hrs by LC-MS/MS analysis; assay type: ADME, organism-based; conditions: in vivo, time 0.25-24 hrs
HCT-116 [19] = experiment: Induction of apoptosis in human HCT-116 cells assessed as effect on RNA polymerase II expression at 25 to 400 nM incubated for 48 hrs by Western blotting analysis; assay type: functional, cell-based; conditions: dose 25-400 nM
HCT-116 [20] = experiment: Induction of apoptosis in human HCT-116 cells assessed as downregulation of c-Myc mRNA expression at 25 to 400 nM incubated for 48 hrs by qRT-PCR analysis; assay type: functional, cell-based; conditions: dose 25-400 nM
[21] = biological target: Cyclin-dependent kinase 6 (Homo sapiens, UniProt Q00534); experiment: Inhibition of CDK6 (unknown origin)
Chain of Cyclin-dependent kinase 6 (Q00534 whole entry): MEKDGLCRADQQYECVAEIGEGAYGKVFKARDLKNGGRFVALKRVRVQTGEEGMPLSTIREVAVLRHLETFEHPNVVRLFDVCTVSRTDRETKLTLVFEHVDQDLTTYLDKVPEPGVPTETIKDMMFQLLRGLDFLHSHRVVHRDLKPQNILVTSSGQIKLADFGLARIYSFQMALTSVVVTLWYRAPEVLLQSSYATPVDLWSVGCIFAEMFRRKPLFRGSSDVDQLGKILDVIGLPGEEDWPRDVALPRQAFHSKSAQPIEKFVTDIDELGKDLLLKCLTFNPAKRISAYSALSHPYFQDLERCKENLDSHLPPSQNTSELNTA

HCT-116 [22] = experiment: Antitumor activity against human HCT-116 cells xenografted in BALB/c mouse assessed as downregulation of Mcl-1 expression at 50 mg/kg,po administrated once daily for 3 weeks by Western blotting analysis; assay type: functional, organism-based
HCT-116 [23] = experiment: Antitumor activity against human HCT-116 cells xenografted in BALB/c mouse assessed as upregulation of PARP expression at 50 mg/kg,po administrated once daily for 3 weeks by Western blotting analysis; assay type: functional, organism-based
[24] = biological target: Glycogen synthase kinase-3 beta (Homo sapiens) (UniProt P49841); experiment: Inhibition of human GSK3beta at 100 nM by kinase profiling assay relative to control
[25] = biological target: Cyclin-dependent kinase 12 (Homo sapiens, UniProt Q9NYV4); experiment: Inhibition of CDK12 (unknown origin)
[26] = AUC (0 to infinity) in Sprague-Dawley rat at 2 mg/kg,iv administration measured for 0.25 to 24 hrs by LC-MS/MS analysis; assay type: ADME, organism-based; conditions: in vivo, time 0.25-24 hrs
[27] = Toxicity in BALB/c mouse xenografted with human HCT-116 cells assessed as liver morphological change at 25 mg/kg,po administrated once daily for 3 weeks by hematoxylin and eosin staining based microscopic analysis; assay type: organism-based; conditions: in vivo, 504 h
[28] = Cmax in Sprague-Dawley rat at 10 mg/kg,po administration measured for 0.25 to 24 hrs by LC-MS/MS analysis; assay type: ADME, organism-based; conditions: in vivo, time 0.25-24 hrs
[29] = biological target: Protein kinase C alpha type (Homo sapiens) (UniProt P17252); experiment: Inhibition of human PKCalpha at 100 nM by kinase profiling assay relative to control
[30] = Toxicity in BALB/c mouse xenografted with human HCT-116 cells assessed as lung morphological change at 25 mg/kg,po administrated once daily for 3 weeks by hematoxylin and eosin staining based microscopic analysis; assay type: organism-based; conditions: in vivo, 504 h
[31] = biological target: Cyclin-dependent kinase 5 (Homo sapiens, UniProt Q00535); experiment: Inhibition of CDK5 (unknown origin)
Chain of Cyclin-dependent kinase 5 (Q00535 whole entry): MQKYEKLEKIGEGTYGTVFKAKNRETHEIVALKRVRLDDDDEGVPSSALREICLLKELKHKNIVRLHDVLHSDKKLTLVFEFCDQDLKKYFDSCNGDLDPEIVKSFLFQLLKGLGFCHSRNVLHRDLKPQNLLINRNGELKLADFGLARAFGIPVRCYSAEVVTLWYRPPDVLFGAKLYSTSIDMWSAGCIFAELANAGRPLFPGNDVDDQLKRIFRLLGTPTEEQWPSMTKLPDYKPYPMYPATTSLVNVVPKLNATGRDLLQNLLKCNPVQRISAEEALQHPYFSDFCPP

[32] = biological target: Serine/threonine-protein kinase PLK2 (Homo sapiens) (UniProt Q9NYY3); experiment: Inhibition of human PLK2 at 100 nM by kinase profiling assay relative to control
Chain of Serine/threonine-protein kinase PLK2 (Homo sapiens) (Q9NYY3 whole entry, looked up): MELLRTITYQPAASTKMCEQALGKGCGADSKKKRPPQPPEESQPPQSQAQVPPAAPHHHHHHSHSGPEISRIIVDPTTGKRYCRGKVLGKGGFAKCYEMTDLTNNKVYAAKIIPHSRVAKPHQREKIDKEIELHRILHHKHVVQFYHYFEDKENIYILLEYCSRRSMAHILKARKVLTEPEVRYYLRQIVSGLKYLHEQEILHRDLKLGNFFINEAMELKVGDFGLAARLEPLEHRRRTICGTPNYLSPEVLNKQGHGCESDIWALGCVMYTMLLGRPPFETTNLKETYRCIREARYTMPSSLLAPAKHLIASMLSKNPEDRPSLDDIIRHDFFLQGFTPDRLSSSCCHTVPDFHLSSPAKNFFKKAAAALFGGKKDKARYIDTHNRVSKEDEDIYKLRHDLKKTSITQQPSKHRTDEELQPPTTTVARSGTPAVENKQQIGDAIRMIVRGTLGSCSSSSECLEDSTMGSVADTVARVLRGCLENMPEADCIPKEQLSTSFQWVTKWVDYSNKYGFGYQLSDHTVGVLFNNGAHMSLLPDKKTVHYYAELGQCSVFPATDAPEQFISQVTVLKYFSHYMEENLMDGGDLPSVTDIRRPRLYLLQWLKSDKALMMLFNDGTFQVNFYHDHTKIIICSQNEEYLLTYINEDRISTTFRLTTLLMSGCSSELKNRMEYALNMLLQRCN

[33] = Toxicity in BALB/c mouse xenografted with human HCT-116 cells assessed as body weight loss at 50 mg/kg,po administrated once daily for 3 weeks; assay type: organism-based; conditions: in vivo, 504 h

In the case of `CC(C)n1nnc2ccc(-c3ccnc(Nc4cc(C(=O)N5CCCN(C)CC5)ccn4)c3)cc21`, the Activity (HCT-116 [1]) was “Active”, the inhibition [2] was less than 50% and the inhibition [3] was less than 50%. The Activity [4] was “Non-Toxic”, the inhibition (HCT-116 [5]) was “Dose-Dependent Effect” and the Activity [6] was “Non-Toxic”. The inhibition [7] was less than 50%, the inhibition at 0.25 h, 10 µM (CYP2D6) was 9.9% and the half-life [8] was 317 min. The inhibition [9] was less than 50%, the inhibition [10] was less than 50% and the GI50 (SW480) was 5.09 µM. The Activity [11] was “Non-Toxic”, the inhibition at 0.25 h, 10 µM (CYP3A4) was 0% and the bioavailability [12] was 12.3%. For the same compound, the Activity [13] was “Non-Toxic”, the inhibition [14] was less than 50% and the Activity [15] was “Non-Toxic”. For the same compound, the Activity (HCT-116 [16]) was “Active”, the Activity (HCT-116 [17]) was “Active” and the Cmax [18] was 358 ng/mL. The Activity (HCT-116 [19]) was “inactive”, the Activity (HCT-116 [20]) was “Active” and the pIC50 [21] was 6.68. For the same compound, the Activity (HCT-116 [22]) was “Active”, the Activity (HCT-116 [23]) was “Active” and the inhibition [24] was less than 50%. For the same compound, the pIC50 [25] was less than 6.30, the AUC(0-inf) [26] was 373 ng·h/mL and the Activity [27] was “Non-Toxic”. The Cmax [28] was 39 ng/mL, the inhibition [29] was less than 50% and the Activity [30] was “Non-Toxic”. The pIC50 [31] was less than 6.30, the inhibition [32] was less than 50% and the Activity [33] was “Non-Toxic”.
